From ChEMBL document CHEMBL1201862, “PubChem BioAssay data set” (2004) come the findings set out here.

In general, GI50 refers to the concentration at which growth is held to half of that of the control.

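Step 1: Grow cells in 96-well plates. Step 2: Expose to compound for 48 hours at 5 concentrations. Step 3: Interpolate endpoints linearly; if unreached, use highest concentration. At the GI50, growth is halved.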 The source made the active and inactive calls. No stated cut-off is given here; in the data, active = GI50 up to about 1.1 µM and inactive = higher.

Holding throughout (assay): DTP human tumour cell line panel, 48 h
The test system of assay [1] is A549.
Assay [2] has as its system CAKI-1.
Assay [3] deals with COLO 205.
The subject of assay [4] is HCT-15.
For assay [5], the system named is HT-29.
Assay [6] has as its system IGROV-1.
Assay [7] deals with K562.
The subject of assay [8] is KM12.
Assay [9] relates to MCF7.
For assay [10], the system named is MOLT-4.
The subject of assay [11] is NCI-H226.
For assay [12], the system named is OVCAR-4.
Assay [13] has as its system SF-268.
Assay [14] relates to SR.
Assay [15] deals with SW-620.
The subject of assay [16] is T47D.
Assay [17] has as its system UACC-257.
The subject of assay [18] is DU-145.
The test system of assay [19] is HCT-116.
The test system of assay [20] is MDA-MB-231.

In the case of `CC12CCC(CC1(Cl)Cl)C2` (stereo not drawn), the GI50 in assay [1] is > 100 µM (inactive); in assay [2], > 100 µM (inactive); in assay [3], > 100 µM (inactive); in [4] it was more than 100 µM; in assay [5] it was > 100 µM (inactive); in assay [6], > 100 µM (inactive). Further, the GI50 in assay [7], in [8], in assay [9], in assay [10], in assay [11] and in assay [12] was > 100 µM (inactive) in each case. In addition, the GI50 in assay [13], in assay [14], in [15], in [16] and in [17] was > 100 µM (inactive) each time.

Consider `CN(N)C(=O)NCCCl`, for which the GI50 in [1] is > 100 µM (inactive); in [2] it was > 100 µM (inactive); in [3], > 100 µM (inactive); in [18], > 100 µM (inactive); in assay [19], > 100 µM (inactive); in [4], more than 100 µM. Further, the GI50 was > 100 µM (inactive) in assay [5]; > 100 µM (inactive) in assay [6]; > 100 µM (inactive) in assay [7]; > 100 µM (inactive) in assay [8]; > 100 µM (inactive) in [9]; 1.3 µM (inactive) in assay [20]. Further, the GI50 in [10] is > 100 µM (inactive); in assay [11], 0.23 µM (active); in assay [12], > 100 µM (inactive); in assay [13], > 100 µM (inactive); in [14], > 100 µM (inactive); in assay [15] it was > 100 µM (inactive). The GI50 in assay [17] is > 100 µM (inactive).

`O=c1c2cc(S(=O)(=O)O)ccc2nc(COc2ccc(Oc3ccc(Cl)cc3Cl)cc2)n1C(=S)Nc1ccc(Cl)cc1`: the GI50 is 20.5 µM (inactive) in assay [1]; 27.9 µM (inactive) in [2]; 18 µM (inactive) in assay [3]; 27.7 µM (inactive) in assay [18]; 22.5 µM (inactive) in [19]; 21 µM in assay [4]. Besides, the GI50 in [5] is 20.6 µM (inactive); in [6] it was 28.3 µM (inactive); in assay [7], 1.06 µM (active); in assay [8] it was 22.5 µM (inactive); in [9], 20 µM (inactive); in assay [11], 18.2 µM (inactive). Besides, the GI50 in assay [12] is 23.9 µM (inactive); in [13] it was 16.3 µM (inactive); in assay [14] it was 1.53 µM (inactive); in [15], 20.9 µM (inactive); in [16] it was 34.6 µM (inactive); in assay [17] it was 25.4 µM (inactive).

`CC[C@]12C=CCN3CCC4(c5cc([C@@]6(C(=O)OC)CC7CN(CCc8c6[nH]c6ccccc86)C[C@@H]6CCC[C@H]76)c(OC)cc5N(C)C4[C@](O)(C(=O)OC)C1OC(C)=O)C32` (stereo partly drawn): the GI50 was 0.231 µM (active) in assay [1]; 0.962 µM (active) in assay [2]; 0.083 µM (active) in assay [3]; 0.0165 µM (active) in assay [18]; 0.108 µM (active) in [19]; 0.443 µM in [4]. The GI50 in assay [5] is 0.103 µM (active); in assay [6], 0.218 µM (active); in [7], 0.0513 µM (active); in [8], 0.0713 µM (active); in assay [9] it was 0.0127 µM (active); in [20], 0.0762 µM (active). Moreover, the GI50 in [10] is 0.155 µM (active); in assay [11], 0.201 µM (active); in [12] it was 0.792 µM (active); in [13], 0.127 µM (active); in [14] it was 0.0528 µM (active); in assay [15], 0.122 µM (active). Further, the concentration for 50% growth inhibition (GI50) in assay [17] was 0.167 µM (active).
